In patent publication US20240197743A1, “WEE1 COMPOUND FOR TREATING UTERINE SEROUS CARCINOMA” (Recurium IP Holdings, LLC, priority 2021, published 2024):

Assays:
[1] = test system: subjects with uterine serous carcinoma (USC); assay: ZN-c3-001 (NCT04158336) open label, multicenter, Phase I dose escalation and expansion study; subjects with USC at doses ≥300 mg QD; format: in vivo, human; settings: for Spleen: baseline 21 mm; for Peritoneum: baseline 17.8 mm
Method: ZN-c3-001 (NCT04158336) is an open label, multicenter, Phase I dose escalation and expansion study evaluating the safety and clinical activity of ZN-c3 in subjects with advanced or metastatic solid tumors, refractory to standard therapy or for whom no standard therapy is available. Oral, daily ZN-c3 dosing was escalated from 25 mg to 450 mg once daily (QD), with a recommended phase 2 dose of 300 mg QD. Here we report preliminary safety and efficacy results for subjects with USC who received ZN-c3 at doses ≥300 mg QD.

[2] = test system: multiple cell lines and xenograft models; assay: in vitro antitumor activity in multiple cell lines and xenograft models; format: cell-based
[3] = subject #1, Follow-up 1 (February 2021)
[4] = subject #1, Follow-up 2 (April 2021)
[5] = subject #1, Follow-up 3 (June 2021)
[6] = subject #2, Follow-up 1 (March 2021)
[7] = subject #2, Follow-up 2 (April 2021)
[8] = subject #2, Follow-up 2 (April 2021), baseline 15 mm
[9] = subject #2, Follow-up 3 (June 2021)
[10] = subject #2, Follow-up 3 (June 2021), baseline 15 mm
[11] = subject #2, Follow-up 4 (July 2021)
[12] = subject #2, Follow-up 4 (July 2021), baseline 15 mm
[13] = subject #2, Follow-up 5 (August 2021)
[14] = subject #2, Follow-up 5 (August 2021), baseline 15 mm
[15] = subject #3, Follow-up 1 (May 2021)
[16] = subject #3, Follow-up 2 (July 2021)
[17] = subject #3, Follow-up 3 (August 2021)
[18] = subject #3, Follow-up 4 (September 2021)
[19] = subject #3, Follow-up 5 (November 2021)

## C=CCn1c(=O)c2cnc(Nc3ccc(N4CCN(C)CC4)cc3)nc2n1-c1ccc2c(n1)[C@@](O)(CC)CC2 [ZN-c3, (R)-2-allyl-1-(7-ethyl-7-hydroxy-6,7-dihydro-5H-cyclopenta[b]pyridin-2-yl)-6-((4-(4-methylpiperazin-1-yl)phenyl)amino)-1,2-dihydro-3H-pyrazolo[3,4-d]pyrimidin-3-one]
[1]; 1 of 11 evaluable USC subjects, ≥300 mg QD
  progressive disease as best overall response: 9.1%
[1]; 3 of 11 evaluable USC subjects, ≥300 mg QD
  confirmed partial response as best overall response: 27.3%
[1]; 7 of 11 evaluable USC subjects, ≥300 mg QD
  stable disease as best overall response: 63.6%
[1]; 11 evaluable USC subjects, ≥300 mg QD
  Disease control rate (complete response, partial response, and stable disease): 90.9%
[1]; 14 USC subjects, ≥300 mg QD
  Grade ≥3 TRAEs occurring in ≥2 subjects: anemia and thrombocytopenia
  TRAEs grades 1-4 occurring in ≥3 subjects, by decreasing frequency: nausea, vomiting, diarrhea, fatigue, decreased appetite, dehydration, and anemia
  subjects reporting at least one treatment-related adverse event (TRAE): 12 of 14
  subjects with each Grade ≥3 hematologic event (anemia, thrombocytopenia): 2 subjects each
[1]; single agent, oral doses ≥300 mg QD
  safety and tolerability: safe and well-tolerated
[1]; subject #1, 2nd restaging (April 2021) vs baseline (November 2020)
  peritoneum imaging result (FIG. 1): confirmed partial response
[1]; subject #1, start 350 mg QD
  best response: Confirmed PR
  reduction overall: 49%
  time on the study drug until radiologic disease progression: 199 days
[1]; subject #1, start 350 mg QD, Follow-up 1 (February 2021), baseline 24 mm
  Target Lesions: 15 mm
[1]; subject #1, start 350 mg QD, after ~3 months of treatment, baseline 36 U/mL
  Tumor marker CA-125, minimum: 12 U/mL
[1]; [3]
  New Lesions: No
  Percentage of overall tumor reduction: −48.9%
  Tumor Response by RECIST 1.1: Partial
  Spleen: 8 mm
[1]; subject #1, Follow-up 1 (February 2021), baseline 45 mm
  Target Lesions Sum: 23 mm
[1]; [4]
  New Lesions: No
  Percentage of overall tumor reduction: −48.9%
  Tumor Response by RECIST 1.1: Partial
  Spleen: 7 mm
[1]; subject #1, Follow-up 2 (April 2021), baseline 24 mm
  Target Lesions: 16 mm
[1]; subject #1, Follow-up 2 (April 2021), baseline 45 mm
  Target Lesions Sum: 23 mm
[1]; [5]
  New Lesions: No
  Percentage of overall tumor reduction: −48.9%
  Tumor Response by RECIST 1.1: Progressive
  Spleen: 7 mm
[1]; subject #1, Follow-up 3 (June 2021), baseline 24 mm
  Target Lesions: 16 mm
[1]; subject #1, Follow-up 3 (June 2021), baseline 45 mm
  Target Lesions Sum: 23 mm
[1]; subject #2, 1st restaging (March 2021) vs baseline (January 2021)
  peritoneum imaging result (FIG. 2): partial response
[1]; subject #2, start 300 mg QD
  best response: Confirmed PR
  reduction overall: 43%
  time on the study drug until radiologic disease progression: 230 days
[1]; subject #2, start 300 mg QD, Follow-up 1 (March 2021), baseline 15 mm
  Target Lesions: 06 mm
[1]; subject #2, start 300 mg QD, after 2 months of treatment, baseline 440 U/mL
  Tumor marker CA-125: < 50 U/mL
[1]; [6]
  New Lesions: No
  Percentage of overall tumor reduction: −43%
  Tumor Response by RECIST 1.1: Partial Response
[1]; subject #2, Follow-up 1 (March 2021), baseline 15 mm
  Lymph Node: 11 mm
[1]; subject #2, Follow-up 1 (March 2021), baseline 30 mm
  Target Lesions Sum: 17 mm
[1]; [7]
  New Lesions: No
  Percentage of overall tumor reduction: −43%
  Tumor Response by RECIST 1.1: Partial Response
[1]; [8]
  Lymph Node: 10 mm
  Target Lesions: 07 mm
[1]; subject #2, Follow-up 2 (April 2021), baseline 30 mm
  Target Lesions Sum: 17 mm
[1]; [9]
  New Lesions: No
  Percentage of overall tumor reduction, from baseline: −40% from baseline
  Percentage of overall tumor reduction, from nadir: +6% from nadir
  Tumor Response by RECIST 1.1: Partial Response
[1]; [10]
  Lymph Node: 10 mm
  Target Lesions: 8 mm
[1]; subject #2, Follow-up 3 (June 2021), baseline 30 mm
  Target Lesions Sum: 18 mm
[1]; [11]
  New Lesions: No
  Percentage of overall tumor reduction, from baseline: −30% from baseline
  Percentage of overall tumor reduction, from nadir: +24% from nadir
  Tumor Response by RECIST 1.1: Partial Response
[1]; [12]
  Lymph Node: 10 mm
  Target Lesions: 11 mm
[1]; subject #2, Follow-up 4 (July 2021), baseline 30 mm
  Target Lesions Sum: 21 mm
[1]; [13]
  New Lesions: No
  Percentage of overall tumor reduction, from baseline: −30% from baseline
  Percentage of overall tumor reduction, from nadir: +24% from nadir
  Tumor Response by RECIST 1.1: Progressive Disease
[1]; [14]
  Lymph Node: 10 mm
  Target Lesions: 11 mm
[1]; subject #2, Follow-up 5 (August 2021), baseline 30 mm
  Target Lesions Sum: 21 mm
[1]; subject #3, 5th restaging (November 2021) vs baseline (April 2021)
  peritoneum imaging result (FIG. 3): complete response
[1]; subject #3, start 300 mg QD
  best response: Unconfirmed Complete Response
  reduction overall: 100%
  time on the study drug until clinical disease progression: 252 days
[1]; subject #3, start 300 mg QD, Follow-up 1 (May 2021), baseline 36.6 mm
  Target Lesions: 21.7 mm
[1]; [15]
  New Lesions: No
  Percentage of overall tumor reduction: −32%
  Tumor Response by RECIST 1.1: Partial Response
  Peritoneum: 15.3 mm
[1]; subject #3, Follow-up 1 (May 2021), baseline 54.4 mm
  Target Lesions Sum: 37 mm
[1]; [16]
  New Lesions: No
  Percentage of overall tumor reduction: −67.8%
  Tumor Response by RECIST 1.1: Partial Response
[1]; subject #3, Follow-up 2 (July 2021), (too small)
  Peritoneum: 5 mm (too small)
[1]; subject #3, Follow-up 2 (July 2021), baseline 36.6 mm
  Target Lesions: 12.5 mm
[1]; subject #3, Follow-up 2 (July 2021), baseline 54.4 mm
  Target Lesions Sum: 17.5 mm
[1]; [17]
  New Lesions: No
  Percentage of overall tumor reduction: −76.5%
  Tumor Response by RECIST 1.1: Partial Response
[1]; subject #3, Follow-up 3 (August 2021), (too small)
  Peritoneum: 5 mm (too small)
[1]; subject #3, Follow-up 3 (August 2021), baseline 36.6 mm
  Target Lesions: 7.8 mm
[1]; subject #3, Follow-up 3 (August 2021), baseline 54.4 mm
  Target Lesions Sum: 12.8 mm
[1]; [18]
  New Lesions: No
  Percentage of overall tumor reduction: −82%
  Tumor Response by RECIST 1.1: Partial Response
[1]; subject #3, Follow-up 4 (September 2021), (too small)
  Peritoneum: 5 mm (too small)
[1]; subject #3, Follow-up 4 (September 2021), baseline 36.6 mm, (too small)
  Target Lesions: 5 mm (too small)
[1]; subject #3, Follow-up 4 (September 2021), baseline 54.4 mm
  Target Lesions Sum: 10 mm
[1]; [19]
  New Lesions: No
  Percentage of overall tumor reduction: −100%
  Tumor Response by RECIST 1.1: Complete Response
  Peritoneum: 0 mm
[1]; subject #3, Follow-up 5 (November 2021), baseline 36.6 mm
  Target Lesions: 0 mm
[1]; subject #3, Follow-up 5 (November 2021), baseline 54.4 mm
  Target Lesions Sum: 0 mm
[1]; subjects with recurrent or advanced USC, Examples 1-3
  clinical activity: demonstrated clinical activity
[2]
  antitumor activity: significant in vitro antitumor activity
